The text below walks through data of publication PMC4788259 (PLoS Neglected Tropical Diseases, 2016).

Molecules are shown by their SMILES.

The test system of the test is E. multilocularis metacestodes. Kind of test: PGI assay: phosphoglucose isomerase release from damaged metacestodes. The test is classed as cell-based, Echinococcus multilocularis. To be noted: 10 μM, 5 days, single wells, relative to DB1127 (10 μM). As to the method:
The preparation of E. multilocularis metacestode material (strain H95) from intraperitoneally (i.p.) infected BALB/c mice was performed as described earlier. Metacestode vesicles were used for in vitro drug screening when they reached 2 to 4 mm in diameter.
For screening of the Malaria Box against E. multilocularis metacestodes, the PGI screening assay was applied that measures the release of the enzyme phosphoglucose isomerase (PGI) upon physical impairment of metacestodes. The screening setup was done in 24 well plates as described by Stadelmann et al. For initial screening, each drug was applied at 10 μM to metacestodes in single wells. As a positive control-drug, the dicationic diguanidino compound DB1127 (10 μM) was used and 0.1% DMSO was added as negative control. Metacestodes were cultured in the presence of the compounds for 5 days, after which PGI release was quantified exactly as stated in Stadelmann et al. […] Averages, standard deviations and EC50 values were calculated in Microsoft Excel 2010.
Regarding `COc1ccc(C)c2sc(N(Cc3cccnc3)C(=O)c3ccc(C#N)cc3)nc12` [MMV001241], the “PGI (% of DB1127 at 10 uM)” value is -0.13%.

Consider `COc1ccc(NC(=O)C2c3ccccc3C(=O)N(CC(C)C)C2c2cccs2)cc1Cl` (stereo not shown) [MMV000642], for which the “PGI (% of DB1127 at 10 uM)” value is -45.07%. Next, `CCc1c(C)c(=N)c2ccccc2n1C.I` [MMV006278]: -42.72%.

As to `COc1cccc(NC(=O)[C@H](C(C)C)n2c(=O)[nH]c3ccccc3c2=O)c1` [MMV665878], the “PGI (% of DB1127 at 10 uM)” value is recorded as -74.00%. In the case of `O=C(NC1CCN(Cc2ccccc2)CC1)c1cc2nc(-c3ccc(Cl)s3)cc(C(F)(F)F)n2n1` [MMV396635] it was -11.44%.

On to `CCOC(=O)c1c[nH]c2c(CC)cccc2c1=O` [MMV498479], for which the “PGI (% of DB1127 at 10 uM)” value was -7.93%. Regarding `Cc1cc(N2CCCC2)nc(Nc2ccc(NC(=O)CCc3ccccc3)cc2)n1` [MMV396669], the “PGI (% of DB1127 at 10 uM)” value was -21.92%. Next, `COc1ccc(/C=C2/SC(=Nc3ccccc3)NC2=O)cc1` [MMV665836]: -11.27%; `CCN(CC)c1ccc(NC(=O)c2cccs2)cc1` [MMV009060]: -36.82%; `CCC(c1ccccc1)c1nn2c(-c3cccs3)nnc2s1` (stereo not shown) [MMV665876]: -39.84%. Next, `O=C(Nc1ccc(CN2CCOCC2)cc1)c1ccc(-c2ccc(Br)cc2)o1` [MMV665901]: -20.18%; `O=C(CCc1ccccc1)c1ccccc1OCC(O)CN1CCCCC1` (stereo not shown) [MMV009015]: 4.79%; `c1ccc(Cn2c(N=Nc3c(Nc4ccccc4)ccc4ccccc34)nc3ccccc32)cc1` [MMV666023]: -50.58%.

As for `COc1ccccc1CNC(=O)C1c2ccccc2C(=O)N(CC(C)C)C1c1cccs1` (stereo not shown) [MMV000648], the “PGI (% of DB1127 at 10 uM)” value is -8.86%. In the case of `COc1ccc2nc(N)nc(C)c2c1` [MMV665897] it was -26.21%.

With `C=C(C)CCC(C)N1CCC(N2CCC(C(=O)NCCc3ccccc3)CC2)CC1` (stereo not shown) [MMV666110], the “PGI (% of DB1127 at 10 uM)” value is recorded as -25.44%. In the case of `COc1ccc(C(C)=O)cc1N1C(=O)C2C(C1=O)C1(c3ccccc3)C(=O)C2(c2ccccc2)C(c2ccc(C)cc2)=C1c1ccc(C)cc1` (stereo not shown) [MMV007695] it was 4.56%; in that of `CCOC(=O)c1ccc2[nH]c(-c3ccccc3)cc(=O)c2c1` [MMV006457], 4.84%; in that of `CN(C)CCCNCc1ccc(-c2ccc(F)c(Cl)c2)o1.Cl` [MMV020505], -8.77%. Next, `CCN(CC)CCNc1ccnc2cc3ccccc3cc12` [MMV006303]: -4.34%; `CN(C)c1ccc(-c2nc3ccc(N)cc3[nH]2)cc1` [MMV666102]: -14.14%. Next, `CCN(CC)c1cc(C)c2cc(NC(=O)c3cccc(OC)c3)ccc2n1` [MMV000498]: 4.05%; `COc1ccc(CN2CCN(Cc3ccccc3)CC2)c(O)c1` [MMV665944]: -7.26%; `Cc1ccc(NC(=O)Nc2cccc(Cl)c2)cc1F` [MMV000911]: 185.05%.

As to `CCOc1ccc(CCNC(=O)c2cccs2)cc1OCC` [MMV007978], the “PGI (% of DB1127 at 10 uM)” value was -3.44%. In the case of `COc1ccccc1C(=O)ON=C(N)Cc1cccc2ccccc12` [MMV666686] it was 1.82%; in that of `O=C(Nc1ccc(Cl)cc1C(=O)Nc1ccncc1)c1ccc(Cl)cc1Cl` [MMV666057], -78.23%; in that of `COc1ccc(-c2c(C)nn3c(N)c(C#N)cnc23)cc1OC` [MMV396797], -51.42%. In the case of `COc1ccc(-c2nc(N3CCN(C(=O)C4CCCCC4)CC3)c3c4c(sc3n2)CCCC4)cc1` [MMV396594] it was -22.30%.

On to `Cc1cccc(N2C(=O)C3C(C2=O)C2(c4ccccc4)C(=O)C3(c3ccccc3)C(c3ccc4c(c3)OCO4)=C2c2ccc3c(c2)OCO3)c1` (stereo not shown) [MMV007228], for which the “PGI (% of DB1127 at 10 uM)” value was determined as 7.95%. Next, `COc1ccc2c(c1)C1(Nc3ccccc3-c3nc4ccccc4n31)C(=O)N2` (stereo not shown) [MMV396749]: 0.0365%; `Clc1ccc2[nH]c3c(NCCCN4CCOCC4)ncnc3c2c1` [MMV006587]: -6.35%. In the case of `COc1ccc(-c2nc(NC(=O)CS(=O)(=O)c3ccc(F)cc3)sc2C)cc1` [MMV665915] it was -67.15%; in that of `CC(=O)c1sc(NC(=O)Nc2ccc(C)cc2C)nc1C` [MMV665894], -2.69%. In the case of `CC(C)=CCN1CCC(C(=O)Nc2ccc(-c3nc4ccccc4[nH]3)cc2)CC1` [MMV665946], the “PGI (% of DB1127 at 10 uM)” value is recorded as -26.45%. Regarding `CCOc1ccc2nc(C)cc(Nc3ccc(N(C)C)cc3)c2c1.Cl` [MMV007020], the “PGI (% of DB1127 at 10 uM)” value was -3.98%. In the case of `Cc1ccccc1OCCSc1nc2ccc(NC(=O)c3cccs3)cc2s1` [MMV007396] it was -6.56%; in that of `O=C(Nc1ccc(N2CCCCC2)c(Cl)c1)c1ccc(Br)o1` [MMV019700], -40.52%; in that of `OC(CNC1CCCCC1)Cn1c2ccc(I)cc2c2cc(I)ccc21` (stereo not shown) [MMV665882], 54.36%. Next, `COc1ccc(Nc2nc(N/N=C/c3ccc(O)cc3)nc(Nc3ccc([N+](=O)[O-])cc3)n2)cc1` [MMV666689]: 5.99%; `COc1ccc(CCn2c(=N)c(C(=O)NCc3cccnc3)cc3c(=O)n4cccc(C)c4nc32)cc1` [MMV667488]: -13.42%; `COc1cccc(Nc2nc(NCCO)c3ccccc3n2)c1.Cl` [MMV011944]: 15.53%. In the case of `CCCOCc1cc(CN2CCN(c3cccc(Cl)c3)CC2)c(O)c2ncccc12` [MMV000787] it was 45.98%; in that of `O=C(Nc1ccc(CN2CCOCC2)cc1)c1ccc(-c2cc(Cl)ccc2Cl)o1` [MMV020651], -24.05%.

Consider `FC(F)(F)c1cccc(Nc2nc(-c3ccccc3)nc3ncccc23)c1` [MMV665798], for which the “PGI (% of DB1127 at 10 uM)” value worked out at 30.38%.

Take `COc1cc(OC)c(N(C)C(=O)c2cc3c(s2)-c2ccccc2S(=O)(=O)C3)cc1Cl` [MMV006427]: the “PGI (% of DB1127 at 10 uM)” value was -47.62%. `COCCNC(=O)c1ccc(OC2CCN(Cc3ccc(F)c(F)c3)CC2)c(Cl)c1` [MMV666072]: the “PGI (% of DB1127 at 10 uM)” value is given as -116.21%.

As for `OCCNc1nc(Nc2ccc(Cl)c(Cl)c2)nc2ccccc12` [MMV001041], the “PGI (% of DB1127 at 10 uM)” value is 6.70%. Next, `CCCCCCc1cc(O)c2c3c(c(=O)oc2c1)CCC(C)C3` (stereo not shown) [MMV665987]: 4.36%; `CC(Oc1ccc(NC(=O)c2cccs2)cc1)C(=O)c1ccc(Cl)cc1` (stereo not shown) [MMV665886]: 2.30%; `COc1ccc2nc(C)cc(Nc3cccc(O)c3)c2c1.Cl` [MMV008212]: -12.96%. Next, `CCOC(=O)c1c(C)n(-c2ccc(Cl)cc2)c2ccc(OC(=O)C=Cc3ccccc3)cc12` [MMV666600]: -39.04%. Take `CC1CN(C(=O)c2sc3ccccc3c2Cl)CC(C)O1` (stereo not shown) [MMV020492]: the “PGI (% of DB1127 at 10 uM)” value is on record as -44.30%. As for `O=c1c2c([nH]c3ccccc13)CCCC2` [MMV665843], the “PGI (% of DB1127 at 10 uM)” value is listed as -19.31%. Next, `Cc1ccc(Nc2nc(N)c3ccccc3n2)cc1Cl` [MMV011522]: 12.79%; `CCOC(=O)c1c[nH]c2ccc(CC)cc2c1=O` [MMV007116]: 80.46%; `CCOC(=O)c1cn(CC)c2cc(N(C)CCc3ccc(OC)c(OC)c3)c(F)cc2c1=O` [MMV665977]: -67.06%.

For `CCCCNc1nc(NC(C)(C)C)nc(NC(C)(C)C)n1` [MMV665864], the “PGI (% of DB1127 at 10 uM)” value is reported as -36.23%. Next, `O=C(c1ccccc1F)N(Cc1ccc(Cl)cc1)c1ccccn1` [MMV665899]: -103.42%. Next, `COc1ccc(C(=O)NC(c2ccccc2Cl)c2cc(Cl)c3cccnc3c2O)cc1` (stereo not shown) [MMV666022]: 259.47%; `COc1ccc(Nc2nc(NCc3ccccc3)c3ccccc3n2)cc1` [MMV000963]: 109.36%. Next, `Cc1[nH]c(-c2ccc(F)cc2)cc1C(=O)NC1CCN(Cc2ccccc2)CC1` [MMV019738]: 12.98%; `CCCCN(CCCC)S(=O)(=O)c1ccc(NC(=O)c2ccco2)cc1` [MMV007881]: -23.46%.

In the case of `CCOc1ccc(N2C(N)=NC(N)=NC2(C)C)cc1.Cl` [MMV667486], the “PGI (% of DB1127 at 10 uM)” value is listed as -3.47%. In the case of `CCOc1cccc2sc(N(Cc3cccnc3)C(=O)C3CCCCC3)nc12` [MMV001230] it was -26.73%. Next, `Cc1ccc(C)c(Cn2c(N3CCC(C(=O)NCc4cccs4)CC3)nc3ccccc32)c1` [MMV019741]: -17.48%; `OC(CNCC1CCCO1)Cn1c2ccc(Cl)cc2c2cc(Cl)ccc21` (stereo not shown) [MMV396736]: 50.77%; `Cc1c(C)n(CC(O)CNC2CCCCC2C)c2ccccc12` (stereo not shown) [MMV665806]: 5.77%. In the case of `CCN(CC)CCNc1ccnc2cc(Cl)ccc12` [MMV006087] it was -37.06%; in that of `Cc1ccc(Nc2nc(NCCO)c3ccccc3n2)cc1C` [MMV001038], 16.86%.
